Experiment [1] has as its system P. falciparum 3D7 parasites. The experiment can be described thus: P. falciparum growth inhibition assay, 1-cycle (72 h treatment), SYBR DNA staining (library screen at 2 μg/mL and dose-response). In kind it is cell-based, Plasmodium falciparum. Conditions: for activity at 2 µg/mL: Plasmodium falciparum.
Experiment [2] has as its system P. falciparum 3D7 parasites. In words: P. falciparum growth inhibition assay, 2-cycle (120 h treatment), delayed-death screen and dose-response. In kind it is cell-based, Plasmodium falciparum. Conditions: for activity at 2 µg/mL: Plasmodium falciparum.
The subject of experiment [3] is T. gondii RH strain (RH-Tub-eYFP) tachyzoites. The experiment can be described thus: microbe, parasite or virus in culture. In kind it is cell-based, Toxoplasma gondii. The conditions noted are these: 72 h; for percent parasite growth at 2 µg/mL: Toxoplasma gondii.
Setting [4] is: 3D7, 72 h, library screen at 2 μg/mL, 72 h, % growth, replicate 1, read-out: Pf_72h_%Growth_Rep1.
The mark [5] stands for this setting: 3D7, 72 h, library screen at 2 μg/mL, 72 h, % growth, replicate 2, read-out: Pf_72h_%Growth_Rep2.
[6] abbreviates: 3D7, 120 h, library screen at 2 μg/mL, 120 h, % growth, replicate 1, read-out: Pf_120h_%Growth_Rep1.
Where [7] appears, read: 3D7, 120 h, library screen at 2 μg/mL, 120 h, % growth, replicate 2, read-out: Pf_120h_%Growth_Rep2.
The mark [8] stands for this setting: library screen at 2 μg/mL, % growth, replicate 1, read-out: Tg_72h_%Growth_Rep1.
The mark [9] stands for this setting: library screen at 2 μg/mL, % growth, replicate 2, read-out: Tg_72h_%Growth_Rep2.

Each structure is given as a SMILES string. Like-named read-outs stand apart in the source and are kept apart here.

In experiment [1] (library screen at 2 μg/mL, 72 h, % growth, replicate 1), `COC1/C=C\C=C(/C)C(=O)NC2=CC(=O)C(NCCN(C)C)=C(C[C@@H](C)C[C@H](OC)[C@H](O)[C@@H](C)/C=C(\C)[C@@H]1OC(N)=O)C2=O` (stereo partly drawn) displayed a Pf_72h_%Growth_Rep1 of 11.89%. The Pf_72h_%Growth_Rep2 in experiment [1] (library screen at 2 μg/mL, 72 h, % growth, replicate 2) is given as -0.93%. The compound also had a Pf_120h_%Growth_Rep1 in experiment [2] (library screen at 2 μg/mL, 120 h, % growth, replicate 1) of 10.33%. Moreover, the Pf_120h_%Growth_Rep2 in experiment [2] (library screen at 2 μg/mL, 120 h, % growth, replicate 2) was found to be 2.04%. Further, the Tg_72h_%Growth_Rep1 in experiment [3] (library screen at 2 μg/mL, % growth, replicate 1) is on record as -1.12%. Besides, the Tg_72h_%Growth_Rep2 in experiment [3] (library screen at 2 μg/mL, % growth, replicate 2) is reported as -0.16%.

As for `C[C@@H]1[C@H](O)[C@@H](C)/C=C/C=C/C=C/C=C/C=C/C=C/C=C/[C@H](O[C@@H]2O[C@H](C)[C@@H](O)[C@H](N)[C@@H]2O)C[C@@H]2O[C@](O)(C[C@@H](O)C[C@@H](O)[C@H](O)CC[C@@H](O)C[C@@H](O)CC(=O)O[C@H]1C)C[C@H](O)[C@H]2C(=O)O` [Amphotericin B], the activity at 2 µg/mL in experiment [1] (setting [4]) was 84.3%; in experiment [1] (setting [5]), 90.2%; in experiment [2] (setting [6]), 77%; in experiment [2] (setting [7]), 69.3%. For the same compound, the percent parasite growth at 2 µg/mL was 101% in experiment [3] (setting [8]) and 86.5% in experiment [3] (setting [9]).

Turning to `O=C1N[C@@H](Cc2ccc(O)cc2)C(=O)N2CCC[C@@H]12` [Cyclo(L-Pro-L-Tyr)], the Pf_72h_%Growth_Rep1 in experiment [1] (P. falciparum, 72 h, screen at 2 μg/mL, replicate 1) was 91.38%. Also, in experiment [1] (P. falciparum, 72 h, screen at 2 μg/mL, replicate 2), the Pf_72h_%Growth_Rep2 is 88.30%. In experiment [2] (P. falciparum, 120 h, screen at 2 μg/mL, replicate 1), this compound had a Pf_120h_%Growth_Rep1 of 89.64%. Besides, in experiment [2] (P. falciparum, 120 h, screen at 2 μg/mL, replicate 2), the Pf_120h_%Growth_Rep2 came to 119.86%. Also, the Tg_72h_%Growth_Rep1 in experiment [3] (T. gondii, screen at 2 μg/mL, replicate 1) was determined as 132.28%. Also, the Tg_72h_%Growth_Rep2 in experiment [3] (T. gondii, screen at 2 μg/mL, replicate 2) is reported as 86.77%.

Take `COC[C@@H](C[C@H]1O[C@@](O)([C@H](O)[C@@H]2C[C@H](OC)[C@@H](O)CC/C=C(C)/C=C/[C@@H](O[C@@H]3O[C@@H](C)[C@H](OC)[C@@H](O)[C@@H]3O)[C@H](C)/C=C(C)/C=C(C)/C=C(\C)C(=O)O2)[C@H](C)[C@@H](O)[C@H]1C)OC1C[C@](C)(O)[C@@H](O[C@H]2C[C@@H](OC)[C@H](O)[C@@H](C)O2)[C@H](C)O1` (stereo partly drawn) [Apoptolidin]: the activity at 2 µg/mL in experiment [1] (setting [4]) is 59%; in experiment [1] (setting [5]), 49.8%; in experiment [2] (setting [6]), 34.5%; in experiment [2] (setting [7]), 23.8%. Moreover, the percent parasite growth at 2 µg/mL in experiment [3] (setting [8]) came out at 76.4%; in experiment [3] (setting [9]), 73%.

For `CCC[C@H]1CC2=C(C[C@@H](CC)CC3=C1C(=O)OC3=O)C(=O)OC2=O` [Byssochlamic acid], the activity at 2 µg/mL turned out to be 89.8% in experiment [1] (3D7, P. falciparum, 72 h, screen at 2 μg/mL, replicate 1, read-out: Pf_72h_%Growth_Rep1); 83.3% in experiment [1] (3D7, P. falciparum, 72 h, screen at 2 μg/mL, replicate 2, read-out: Pf_72h_%Growth_Rep2); 129% in experiment [2] (3D7, P. falciparum, 120 h, screen at 2 μg/mL, replicate 1, read-out: Pf_120h_%Growth_Rep1); 88.1% in experiment [2] (3D7, P. falciparum, 120 h, screen at 2 μg/mL, replicate 2, read-out: Pf_120h_%Growth_Rep2). Moreover, the percent parasite growth at 2 µg/mL in experiment [3] (T. gondii, screen at 2 μg/mL, replicate 1, read-out: Tg_72h_%Growth_Rep1) was 92.1%; in experiment [3] (T. gondii, screen at 2 μg/mL, replicate 2, read-out: Tg_72h_%Growth_Rep2), 94.4%.

In experiment [1] (P. falciparum 3D7, 72 h, library screen at 2 μg/mL, % growth, replicate 1), `Oc1cccc2nc3ccccc3nc12` [BIA-H1520] registered a Pf_72h_%Growth_Rep1 of 84.93%. Moreover, in experiment [1] (P. falciparum 3D7, 72 h, library screen at 2 μg/mL, % growth, replicate 2), the Pf_72h_%Growth_Rep2 came to 98.32%. Moreover, the Pf_120h_%Growth_Rep1 in experiment [2] (P. falciparum 3D7, 120 h, library screen at 2 μg/mL, % growth, replicate 1) was 70.83%. Moreover, in experiment [2] (P. falciparum 3D7, 120 h, library screen at 2 μg/mL, % growth, replicate 2), the Pf_120h_%Growth_Rep2 is on record as 82.39%. Moreover, the Tg_72h_%Growth_Rep1 in experiment [3] (T. gondii RH, library screen at 2 μg/mL, % growth, replicate 1) worked out at 90.90%. The Tg_72h_%Growth_Rep2 in experiment [3] (T. gondii RH, library screen at 2 μg/mL, % growth, replicate 2) is 78.11%.

For the origin of these results see publication PMC12396409, “Screening and hit evaluation of a microbial metabolite library against the pathogenic Plasmodium falciparum and Toxoplasma gondii parasites” (International Journal for Parasitology: Drugs and Drug …, 2025).
